Laboratory results from patent publication US12398101B2, “Herbicidal 2-azaspiro[3-5]nonane compounds” (SYNGENTA CROP PROTECTION AG, priority 2018, dated 2025).

What was measured:
Type in all cases: in vivo
Avena fatua (AVEFA) [1] = experiment: Glasshouse herbicide test, pre-emergence application; settings: 250 g/h, evaluated after 13 days
Experimental: (§1) Seeds of a variety of test species are sown in standard soil in pots (Lolium perenne (LOLPE), Setaria faberi (SETFA), Echinochloa crus-galli (ECHCG), Avena fatua (AVEFA)). After cultivation for one day (pre-emergence) or after 8 days cultivation (post-emergence) under controlled conditions in a glasshouse (at 24/16° C., day/night; 14 hours light; 65% humidity), the plants are sprayed with an aqueous spray solution derived from the formulation of the technical active ingredient in acetone/water (50:50) solution containing 0.5% Tween 20 (polyoxyethelyene sorbitan monolaurate, CAS RN 9005-64-5). Compounds are applied at 250 g/h. The test plants are then grown in a glasshouse under controlled conditions in a glasshouse (at 24/16° C., day/night; 14 hours light; 65% humidity) and watered twice daily. After 13 days for pre and post-emergence, the test is evaluated for the percentage damage caused to the plant. The biological activities are shown in the following table on a five point scale (5=80-100%; 4=60-79%; 3=40-59%; 2=20-39%; 1=0-19%).

[2] = system: Echinochloa crus-galli (ECHCG); experiment: as above; settings: 250 g/h, evaluated after 13 days
Experimental: as §1

Lolium perenne (LOLPE) [3] = experiment: as above; settings: 250 g/h, evaluated after 13 days
Experimental: as §1

Setaria faberi (SETFA) [4] = experiment: as above; settings: 250 g/h, evaluated after 13 days
Experimental: as §1

Avena fatua (AVEFA) [5] = experiment: Glasshouse herbicide test, post-emergence application; settings: 250 g/h, evaluated after 13 days
Experimental: as §1

[6] = system: Echinochloa crus-galli (ECHCG); experiment: as above; settings: 250 g/h, evaluated after 13 days
Experimental: as §1

Lolium perenne (LOLPE) [7] = experiment: as above; settings: 250 g/h, evaluated after 13 days
Experimental: as §1

Setaria faberi (SETFA) [8] = experiment: as above; settings: 250 g/h, evaluated after 13 days
Experimental: as §1

wheat = experiment: Prior art comparison, post-emergence, crop plants; settings: for Wheat (percentage damage): post-emergence
barley = experiment: Prior art comparison, post-emergence, crop plants
[9] = system: Panicum miliaceum (PANMI); experiment: Prior art comparison, post-emergence, representative weed; settings: for PANMI (percentage damage): post-emergence

## CC#Cc1cc(C)c(C2C(=O)CC3(CC2=O)CN(C(C)=O)C3)c(C)c1 [Compound 1.001, 2-acetyl-7-(2,6-dimethyl-4-prop-1-ynyl-phenyl)-2-azaspiro[3.5]nonane-6,8-dione]
Avena fatua (AVEFA) [1]
  percentage damage caused to the plant, five point scale, AVEFA: 5 (5=80-100%)
[2]
  percentage damage caused to the plant, five point scale, ECHCG: 2 (2=20-39%)
Lolium perenne (LOLPE) [3]
  percentage damage caused to the plant, five point scale, LOLPE: 5 (5=80-100%)
Setaria faberi (SETFA) [4]
  percentage damage caused to the plant, five point scale, SETFA: 5 (5=80-100%)
Avena fatua (AVEFA) [5]
  percentage damage caused to the plant, five point scale, AVEFA: 5 (5=80-100%)
[6]
  percentage damage caused to the plant, five point scale, ECHCG: 5 (5=80-100%)
Lolium perenne (LOLPE) [7]
  percentage damage caused to the plant, five point scale, LOLPE: 5 (5=80-100%)
Setaria faberi (SETFA) [8]
  percentage damage caused to the plant, five point scale, SETFA: 5 (5=80-100%)
wheat; Rate 60
  Wheat (percentage damage): 0
wheat; Rate 60 + CQC (safener cloquintocet-mexyl at 50 g/ha)
  Wheat (percentage damage): 0
wheat; Rate 125
  Wheat (percentage damage): 0
wheat; wheat and barley, summary of Table B3
  crop safety vis-à-vis prior art compound C1: significantly improved crop safety
barley; Rate 60
  Barley (percentage damage): 0
barley; Rate 125
  Barley (percentage damage): 0
[9]; Rate 60
  PANMI (percentage damage): 100
[9]; Rate 125
  PANMI (percentage damage): 100
[9]; summary of Table B3
  overall weed control: good overall weed control
